According to ChEMBL document CHEMBL6109155, “Discovery of Phenylacylpiperidine as Novel sEH Inhibitors through Scaffold Hopping of Natural Stilbene” (J Med Chem, 2025):
Calls of active or inactive are those of the source. No cut-off for these calls is given here.

Experiments:
Rattus norvegicus = experiment: Anti-inflammatory activity in Sprague-Dawley rat model of CFA-induced rheumatoid arthritis assessed as decrease in joint deformity at 10 mg/kg, po administered daily measured after 7 days; type: functional, organism-based; conditions: time 7.0 day
[1] = Cmax in Sprague-Dawley rat at 5 mg/kg, iv measured for 24 hrs; type: ADME, organism-based; conditions: in vivo

In the case of `COc1cc(CC(=O)N2CCC(NC(=O)NCc3ccc(OC(F)(F)F)cc3)CC2)cc(OC)c1`, the Activity (Rattus norvegicus) is reported as “Active” and the Cmax [1] is reported as 3.12 µg/mL.
